Experimental findings from patent publication US6555569B2, “Use of heteroaryl substituted N-(indole-2-carbonyl-) amides for treatment of infection” (Pfizer Inc., priority 2000, dated 2003) are described below.

Usually MIC stands for the least concentration at which growth counts as inhibited. Low readings indicate greater potency, high ones weaker potency. One may read the MBC as the smallest concentration meeting the test's criterion for killing. High values mean weaker bactericidal potency, low ones greater bactericidal potency.

Experiment [1] relates to Chlamydia pneumoniae. Kind of experiment: Chlamydia pneumoniae infection of HEp-G2 cells, Protocol 1. Format: cell-based. As to conditions: for MIC / MBC: Chlamydia pneumoniae, Protocol 1; for MIC: HEp-G2 cells, 72 h infection, lowest concentration that inhibited the formation of inclusions; for MBC: no inclusions after compound removed and further 48 h incubation; for activity against growth of C. pneumoniae in HEp-2 cells: as shown in Table 2. The method, then:
(§1) Protocol 1 was performed in 96-well flat-bottom microtiter plates. Each well contained 100 μL of 10^6 HEp-G2 cells/ml in standard medium that had been incubated for 24 h at 37° C. in 5% CO2. Compound stocks were prepared in dimethylsulfoxide, diluted in two-fold serial dilutions, and added to each well as 10 μL aliquots. Each compound concentration was assayed in triplicate. Elementary bodies (chlamydial stock) were diluted to contain 2×10^4inclusion-forming units (ifu) per milliliter and 90 μL was added to each well. Infection was allowed to proceed for 72 h at 37° C. in 5% CO2, after which the cells were fixed and stained with genus-reactive anti-LPS antibody. The use of a fluorescein (FITC)-conjugated secondary antibody allowed the number of inclusion-containing cells to be identified via inverted fluorescent microscopy. The minimum inhibitory concentration (MIC) was defined as the lowest concentration of compound that inhibited the formation of inclusions. The minimal bactericidal concentration (MBC) was defined as the lowest concentration of compound that prevented the formation of inclusions after the compound had been removed by the addition of fresh medium and the cultures had been incubated for a further 48 h. Procedures for growth and preparation of C. pneumoniae and HEp-G2 cells are described in Kalayoglu, M. V., et al., J. Infect. Dis., 1999, 180:780-790. Methodology for detecting inclusions using an direct fluorescent antibody technique is found in Byrne, G. I., et al. J. Infect. Dis., 1993, 168:415-420.

Experiment [2] has as its system Chlamydia pneumoniae. The experiment in a line: Chlamydia pneumoniae infection of HEp-G2 cells, Protocol 2 (compound added 15 h after challenge). Format: cell-based. As to conditions: for MIC: Chlamydia pneumoniae, Protocol 2, compound added 15 h after challenge of HEp-G2 cells. The method, then: as §1
Protocol 2 was nearly identical to protocol 1 except that compound was added 15 h after challenge of HEp-G2 cells with C. pneumoniae. This protocol helps distinguish compounds that interfere with latter stages of C. pneumoniae growth and replication.

The next experiment concerns C. pneumoniae. Kind of experiment: C. pneumoniae protocol that treats HEp-G2 cells with cycloheximide. The format is cell-based, Chlamydia pneumoniae. The following applies: cycloheximide 1 μg/mL.

Molecules are shown by their SMILES. In brackets after ≈: the same amount, converted by molar mass.

Take `O=C(N[C@@H](Cc1ccc(F)cc1)C(=O)N1CCC(O)CC1)c1cc2cc(Cl)ccc2[nH]1` [Compound 1]: in the experiment with Chlamydia pneumoniae [1], the MIC stood at 12.5 µg/mL (≈ 28.2 µM), the minimum bactericidal concentration (MBC) came to 25 µg/mL (≈ 56.3 µM) and the “activity against growth of C. pneumoniae in HEp-2 cells” value is on record as “exhibited activity”. In the experiment on Chlamydia pneumoniae [2], this compound came in with an MIC of 12.5 µg/mL (≈ 28.2 µM). For the same compound, the “interfering with the latter stage of pneumoniae growth and replication” value in the experiment with Chlamydia pneumoniae [2] (comparison of compound 1 with compound 2) was “superior to compound 2”. In addition, the “MICs in a protocol that treats HEp-G2 cells with cycloheximide” value with C. pneumoniae is “did not differ”.

For `O=C(N[C@@H](Cc1ccccc1)C(=O)N1CC(O)C1)c1cc2cc(Cl)ccc2[nH]1` [Compound 2], in the experiment with Chlamydia pneumoniae [1], the MIC amounted to 25 µg/mL (≈ 62.8 µM), the MBC worked out at 25 µg/mL (≈ 62.8 µM) and the “activity against growth of C. pneumoniae in HEp-2 cells” value is recorded as “exhibited activity”. Moreover, the MIC against Chlamydia pneumoniae [2] was 50 µg/mL (≈ 126 µM). Moreover, the “MICs in a protocol that treats HEp-G2 cells with cycloheximide” value in the experiment on C. pneumoniae was “did not differ”.
